These results are taken from patent US20160355782A1, “METHOD FOR ENHANCING DIFFERENTIATION OF DOPAMINERGIC NEURONS” (Buddhist Tzu Chi Medical Foundation, priority 2015, published 2016).

The subject of this test is midbrain explants. Description: Midbrain explant cultures, TH+ cell numbers. It is filed as cell-based, rat. Particulars: without exogenous UCN. How it is done:
Midbrain explants were dissected from E13.5 embryos by the method known by a person skilled in the art, for example as the protocol described by Baizabal and Covarrubias (2009) and performed with some modifications.
The dorsal midline of the explants was cut and the tissue was placed on porous (0.4 μm) transparent membrane inserts (25-mm in diameter, Nunc, Roskilde, Denmark) with the ventricular surface facing up. Inserts were then placed into six-well culture plates. Each well contained 1.5 mL of MEM medium supplemented with 10% FBS, 100 U/mL penicillin, and 100 μg/mL streptomycin. Explants were incubated at 37° C. with 5% CO2 for 4 hours, after which the explants were incubated in a serum-free DMEM/F12/N2 medium with or without UCN for 3 days. Midbrain explants were then fixed with 4% paraformaldehyde and immuno-histochemical analysis was performed.

Setting [1] is: CP-376395 in combination with astressin 2B.

For the compound astressin, where the note is “astressin”, the “TH+ cell numbers in the VM of midbrain explants” value (from here on “TH+ cell numbers in the VM”) is given as “reduce”.

As for `CCC(CC)Nc1cc(C)nc(Oc2c(C)cc(C)cc2C)c1C` [CP-376395], the “TH+ cell numbers in the VM” value under setting [1] is given as “reduce”.

For the compound astressin 2B, under setting [1], the “TH+ cell numbers in the VM” value is listed as “reduce”.
